The record followed here is patent publication US20250034135A1, “ANTI-APOPTOTIC PROTEIN BCL-2 INHIBITOR, PHARMACEUTICAL COMPOSITION AND USES THEREOF” (HANGZHOU HEALZEN THERAPEUTICS CO., LTD., priority 2021, published 2025).

Data set [1] concerns the target T1, human CYP3A4 enzyme (Homo sapiens (Human), UniProt P08684).
For data set [2] the following is noted: beagle, dog, in vivo, 5 mg/kg.
Protocol: (§1) Experimental method: Beagle dogs were used as experimental animals and administered 5 mg/kg by gavage. The blood collection time points for gavage administration were 0, 0.5, 1, 2, 3, 4, 6, 8, and 24 hours. 3 mL of whole blood was collected, and after centrifugation, plasma was taken for LC-MS analysis.
Another data set is described as follows: in vivo. As to conditions: Sprague-Dawley, rat, po, 10 mg/kg.
The target in another data set is BCL2 (G101V) (Homo sapiens (Human), UniProt P10415, G101V). In words: Molecular level activity test of anti-apoptotic protein BCL2 (G101V) (HTRF, binding to Bim peptide). As to conditions: inhibition of BCL2 (G101V) binding to Bim peptide, read-out: BCL-2 (G101V). In short, it runs like this: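 His-tagged recombinant BCL2 (G101V) incubated 1 h with biotin-BIM peptide and compound (2% DMSO), then anti-His and streptavidin-XL665 detection reagents added for 4 h at room temperature. HTRF signal reflects compound effect on BCL2–BIM binding.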
On the technique in general: TR-FRET usually uses a lanthanide donor and a delayed reading to cut background.

A further data set concerns the target BCL-XL (Homo sapiens (Human), UniProt Q07817). The data set can be described thus: BCL-XL enzyme molecular level activity test (HTRF, binding to BIM peptide). The note with it: binding of BCL-XL to BIM peptide, values in nM, read-out: BCL-XL inhibitory activity (IC50). In short, it runs like this: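 HTRF binding assay: His-tagged recombinant BCL-XL with biotin-BIM peptide and compound (2% DMSO), 1 h. Anti-His and streptavidin-XL665 detection reagents added, 4 h at room temperature. Excitation 320 nm; 665/615 nm ratio reflects binding, with no-protein background and no-compound full-binding controls.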

The test system of the next data set is human platelets. In words: Platelet viability test (CTG). It counts as cell-based. As to conditions: CTG after 24 h. The protocol:
After 10 mL of platelet-rich plasma was added to 30 mL of ACD-A solution and uniformly mixed, centrifugation was performed at 1200 g, and the supernatant was discarded; 10 mL of ACD-A solution was added, resuspended, uniformly mixed, and centrifuged at 1200 g for 10 min, and the supernatant was discarded. 5 mL of HEPES-Tyrode's buffer containing 1 μM PGE1 and 0.2 U/mL apyrase was added, slightly inverted, and then centrifuged at 800 g for 5 min, and the supernatant was discarded. 10 mL of HEPES-Tyrode's buffer containing 1 μM PGE1 and 0.2 U/mL apyrase was added, resuspended, and centrifuged at 1000 g for 5 min, and the supernatant was discarded. 2 mL of HEPES-Tyrode's buffer containing 1 μM PGE1+10% FBS-resuspended platelets was added, 200 μL was taken into a centrifuge tube and diluted to 2 mL. Then it was diluted to 1, 0.8, 0.6, 0.4, 0.2, 0.1, 0.08, 0.06, 0.04, 0.02, 0.01 times, the volume was complemented to 100 μL, and 50 μL of CTG reagent was added to detect cell viability. The maximum valid dilution with a fluorescence value not exceeding […] was selected for dilution, 90 μL/well was connected to a 96-well cell plate for chemiluminescence detection. A compound was prepared with HEPES-Tyrode's buffer containing 1 μM of PGE1+10% FBS, and added to the cells, which was gently beaten evenly and detected for cell viability by adding 50 μL CTG after 24 h.

A further data set addresses BCL2 (D103Y) (Homo sapiens (Human), UniProt P10415, D103Y). The data set can be described thus: Molecular level activity test of BCL2 (D103Y) (HTRF, binding to Bim peptide). As to conditions: read-out: BCL-2 (D103Y) (nM) (inhibitory activity, IC50). In short, it runs like this:
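His-tagged recombinant protein mixed with biotinylated BIM peptide and compound (2% DMSO), reacted 1 h. Anti-His and streptavidin-XL665 detection reagents then added and incubated 4 h at room temperature before HTRF read-out of binding inhibition.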

A further data set has as its target BCL2 (Homo sapiens (Human), UniProt P10415). In words: Molecular level activity test of anti-apoptotic protein BCL2 (HTRF, binding to Bim peptide). As to conditions: HTRF, binding of BCL2 to Bim peptide; read-out: BCL2 nM (inhibitory activity, IC50). In short, it runs like this: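 Signal comes from proximity of anti-His-labelled BCL2 and streptavidin-XL665-bound biotin-BIM peptide. Test compounds, added in 2% DMSO, were preincubated with protein and peptide for one hour; detection reagents then incubated four hours at room temperature before reading.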

Data set [3] has as its system RS4; 11 cells. The data set can be described thus: In vivo anti-tumor efficacy, RS4; 11 subcutaneous transplanted tumor model. As to conditions: 11 transplanted tumor, NOD/SCID mice, 5 mg/kg by gavage, after 8 days. The source says: Tumor models were established by subcutaneous inoculation of RS4; 11 cells into NOD/SCID mice. When the tumors grew to about 100 mm^3, the mice were divided into groups and administered as follows: The control group was given a corresponding volume of CMC-Na solution by gavage; […]; the weight and tumor size changes of the mice were weighed twice a week, and after 8 days, the efficacy of the compounds on RS4; 11 mice transplanted tumors was investigated.
The relative tumor proliferation rate T/C %=TRTV/CRTV×100% (TRTV: average RTV of the treatment group; CRTV: average RTV of the negative control group). Based on the results of tumor measurements, the relative tumor volume (RTV) was calculated using the formula RTV=Vt/V0, where V0 was the tumor volume measured during group division (i.e. D0), Vt was the tumor volume at a certain measurement, and TRTV and CRTV used the data of the same day.

For data set [4], the target named is T1, human CYP3A4 enzyme. In words: CYP3A4 enzyme inhibitory activity (Vivid CYP3A4 Green screening kit). As to conditions: read-out: CYP3A4 (IC50); Vivid CYP3A4 Green screening kit.
Another data set can be described thus: Canine absorption test. As to conditions: Beagle dogs, 5 mg/kg by gavage.
A further data set can be described thus: Rat absorption test. The note with it: Sprague-Dawley, plasma, po, 10 mg/kg.
Data set [5] deals with RS4; 11 cells. The data set can be described thus: Tumor proliferation inhibitory activity test (MTS) on RS4; 11. The class given is cell-based. The note with it: Homo sapiens, RS4-11, 72 h, 3 days incubation. In short, it runs like this:
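RS4;11 cells were exposed to serially diluted compound (0.2% DMSO control) for 3 days at 37 °C/5% CO2, followed by MTS for 3–4 h. Read-out was OD490−OD690, and inhibition was calculated relative to the DMSO and blank wells.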

Like-named read-outs stand apart in the source and are kept apart here. Bounds are passed on as bounds.

T1 sequence (P08684 whole entry): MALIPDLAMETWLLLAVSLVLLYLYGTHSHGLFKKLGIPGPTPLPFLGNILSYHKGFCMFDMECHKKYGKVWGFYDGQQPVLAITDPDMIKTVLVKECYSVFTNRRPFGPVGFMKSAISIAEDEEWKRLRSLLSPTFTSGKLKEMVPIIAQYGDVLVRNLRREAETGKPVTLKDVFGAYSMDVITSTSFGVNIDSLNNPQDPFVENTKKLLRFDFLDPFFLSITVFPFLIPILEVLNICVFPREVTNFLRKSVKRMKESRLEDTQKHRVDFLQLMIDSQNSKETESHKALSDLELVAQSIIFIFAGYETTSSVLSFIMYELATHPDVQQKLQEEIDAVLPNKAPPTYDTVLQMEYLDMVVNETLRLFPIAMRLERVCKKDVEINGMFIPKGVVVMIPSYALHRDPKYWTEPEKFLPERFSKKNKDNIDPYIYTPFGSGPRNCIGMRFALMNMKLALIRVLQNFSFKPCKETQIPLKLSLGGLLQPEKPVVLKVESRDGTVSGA
BCL-XL, sequence (Q07817 whole entry): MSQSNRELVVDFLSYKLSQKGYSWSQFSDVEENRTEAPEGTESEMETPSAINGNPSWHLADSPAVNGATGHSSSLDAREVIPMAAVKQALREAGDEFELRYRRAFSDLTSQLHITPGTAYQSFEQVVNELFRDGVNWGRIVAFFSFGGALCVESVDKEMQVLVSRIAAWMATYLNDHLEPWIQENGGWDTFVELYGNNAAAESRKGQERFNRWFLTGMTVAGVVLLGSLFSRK
Protocol for Canine absorption test: as §1
Protocol for Rat absorption test: Experimental method: SD rats were used as experimental animals and administered 10 mg/kg by gavage. The blood collection time points for gavage administration were 0, 0.5, 1, 2, 3, 4, 6, 8, and 24 hours. 3 mL of whole blood was collected, and after centrifugation, 1 mL of plasma was taken for LC-MS analysis.

`COc1ccc(CN2CCN(C3CC4(CCN(c5cc(Oc6cnc7[nH]ccc7c6)c(C(=O)NS(=O)(=O)c6ccc(NCC7(F)CCOCC7)c([N+](=O)[O-])c6)cc5F)CC4)C3)[C@H](c3ccccc3C(C)C)C2)cc1` [compound 152, (R)-2-((1H-pyrrolo[2,3-b]pyrid-5-yl)oxy)-5-fluoro-N-((4-(((4-fluorotetrahydro-2H-pyran-4-yl)methyl)amino)-3-nitrophenyl)sulfonyl)-4-(2-(2-(2-isopropylphenyl)-4-(4-methoxybenzyl)piperazin-1-yl)-7-azaspiro[3.5]non-7-yl)benzamide]: at human CYP3A4 enzyme [1], the IC50 is greater than 20000 nM. The DNAUC in data set [2] is 13685 AUC (h*ng/mL)/dose (mg/kg). In the data set “in vivo”, the AUC (commonly the area under the concentration-time curve, a measure of exposure) amounted to 3330 ng·h/mL.

Regarding `COc1ccc(CN2CCN(C3CC4(CCN(c5cc(Oc6cnc7[nH]ccc7c6)c(C(=O)NS(=O)(=O)c6ccc(NC[C@H]7CC[C@](C)(O)CC7)c([N+](=O)[O-])c6)cc5F)CC4)C3)[C@H](c3ccccc3C(C)C)C2)cc1` [compound 234], the IC50 at BCL2 (G101V) was less than 10 nM; on BCL-XL, greater than 500 nM; with human platelets, greater than 5000 nM; on BCL2 (D103Y), less than 10 nM; on BCL2 it was less than 10 nM; at human CYP3A4 enzyme [4] it was greater than 20000 nM. Further, the IC50 with RS4; 11 cells [5] was less than 0.5 nM. The T/C % with RS4; 11 cells [3] is 1.26%. For the same molecule, in “Canine absorption test”, the DNAUC is on record as 9103 AUC (h*ng/mL)/dose (mg/kg). This molecule yielded an AUC in the data set “Rat absorption test” of 5630 ng·h/mL.
